In patent US20210094922A1, “Dyes for Analysis of Soluble Protein Aggregates or Misfolded Protein Oligomers” (The Penn State Research Foundation, priority 2018, published 2021):
Values joined by “and” are separate entries in the source; they are usually repeats but may differ in a detail not shown here. Identical values can stand only once.

What was measured:
[1] = Photophysical parameters of fluorophores in glycerol; type: physicochemical; conditions: for B (brightness): calculated using B = Φϵ; for Φ (quantum yield) / λem / λex / decrease in brightness relative to 3 / diminished quantum yield relative to 3: in glycerol; for λabs: maximum absorbance measured in glycerol; for ϵ (extinction coefficient): measured in glycerol; for fluorescence in solvents with increasing concentrations of glycerol: glycerol:H2O mixtures
Description: FP analogues (20 μM) were prepared in glycerol:H2O mixture with increasing glycerol concentrations. In addition, fluorescence intensity in 1,4-dioxane was measured to evaluate their response to polarity. Fluorescence measurement was carried out using a Tecan infinite M1000Pro fluorescence microplate reader at excitation and emission wavelengths as indicated. All readings were normalized against the fluorescence intensity in 100% glycerol as 1. Error bars: standard error (n=3).
FP analogues (20 μM) were prepared in glycerol. Spectra were collected with emission wavelength of 420 nm for 1, 525 nm for 2, 620 nm for 3, 3a and 3b. All measurements were carried out using a Tecan infinite M1000Pro fluorescence microplate reader.
FP analogues (20 μM) were prepared in glycerol. Spectra were collected with excitation wavelength of 370 nm for 1, 455 nm for 2, 530 nm for 3 and 3b, 485 nm for 3a. All measurements were carried out using a Tecan infinite M1000Pro fluorescence microplate reader.
FP analogues (10 μM) were prepared in glycerol. Spectra were collected with 10 mm quartz cuvette. All measurements were carried out using Agilent 300 UV-Vis spectrophotometer.
However, the quantum yield (QY, Φ=0.001 for 1 and Φ=0.027 for 2 in glycerol, Table 2) was much lower than that of a GFP (Φ=0.79).

[2] = Fluorescence of crystals of 3; type: physicochemical; conditions: crystal
Excerpt: (a) The crystal of 3 is fluorescent. The crystals were looped out and transferred to a 35 mm glass bottom dish. Images were taken using an inverted Biorad ZOE fluorescent cell imager. […] Reason of the dark image in the bright field is because light of an inverted microscope could not pass through the thick crystal. (b) Crystal structure and packing diagram of 3, with thermal ellipsoids drawn at 50% probability level.
The fluorescence may arise from the tight crystal packing that inhibits TICT of 3 (FIG. 10b).

[3] = Photostability of 3, absorbance under laser irradiation; type: physicochemical; conditions: 5 mW laser beam of 543 nm; glycerol and protein aggregates
Excerpt: The inventors also determined photostability of 3 by measuring its absorbance spectra in glycerol and protein aggregates. […] These photochemical properties make 3 suited for fluorescence microscopy.

HeLa cells = test: Stress-induced proteome aggregation in HeLa cells with 17-AAG (AggGlow); type: cell-based; conditions: 1 μM 17-AAG, 2.5 μM 3
Excerpt: (§1) Untreated cells remain dark as shown in right panel.
(§2) 3 is used to monitor stress-induced proteome aggregation in HEK293T (human embryonic kidney) cells with a proteasome inhibitor MG132. […] The diffusive fluorescence structure indicates misfolded oligomers and the granular fluorescence structure indicates insoluble aggregates. Similar to this application, 3 was used to monitor stress-induced proteome aggregation in HeLa cells with a heat-shock protein 90 (Hsp90) inhibitor 17-AAG.

SOD1(V31A) = target: T1, SOD1(V31A) (Homo sapiens, UniProt P00441, V32A); test: Heat-induced SOD1(V31A) aggregation assay, fluorogenic detection; type: biochemical
T1 construct: linker (TEV site)-Halo-His6 (C, cleaved yes); made in house; host or cells: E. coli BL21 DE3* (pET29b; pBAD σ32-I54N co-expressed)
Description: (a) SOD1(V31A) aggregation (42 μM) was induced at 59° C. for 30 min in buffer (50 mM Tris-HCl, pH 7.5, 100 mM NaCl, 83 mM EDTA), in the presence of 3 (21 μM). Reaction mixture was illuminated by UV trans-illuminator before and after centrifugation at 21,000 g for 10 min at 4° C. (b) Fluorescence intensity of SOD1(V31A) aggregates (42 μM) in the presence of varying concentrations of 3. 100 μM of 3 in buffer was used as a control. Parameters for fluorescence measurement: 3 (Ex=530 nm/Em=600 nm). Error bars: standard error (n=3).
(§3) HEK293T cultures were seeded at 25% confluency 24 h prior to transfection in 12-well plate for time dependent fluorescence plate reader analysis or 35 mm glass bottom culture dishes (Poly-d-lysine coated, MatTek Corporation). Cells were grown in DMEM medium supplemented with 10% FBS and penicillin-streptomycin antibiotics until they reached 50-60% confluency. Transfection was performed using X-tremeGene™ 9 DNA transfection reagent (Roche). After 24 h of protein expression and co-translational labeling, medium was replaced with fresh DMEM to diffuse out unbound ligands. After 30 min, media was replaced by fresh DMEM medium containing DMSO vehicle or NaAsO2 (50 μM). Cells were incubated for 18 h, 37° C. in a CO2 incubator. Nuclear stain Hoechst 33342 ([…]) was added to the medium 30 min prior to confocal imaging. Aggregation Assays. α-synuclein: Aggregation solution contained 70 or 140 μM α-synuclein in 20 mM HEPES (pH 7.5) and 100 mM NaCl. 10 μM of 3 or ThT was added to the solution at the beginning of reaction. Previous studies have shown that the kinetics of α-synuclein aggregation is unaffected by the addition of ThT. A volume of 150 μL of the mixture was pipetted into a well of clear-bottom 96-well plate, which was subsequently sealed with Mylar plate sealers. The plate was loaded on a Heidolph vibrating platform shaker and shake at 1,350 rpm at 37° C. At indicated time points, fluorescence reading was obtained using a Tecan M1000Pro fluorescence plate reader. Fluorescence intensity was recorded at Ex=530 nm/Em=600 nm for 3 and Ex=450 nm/Em=480 nm for ThT. Each sample was run in triplicate or quadruplicate. SOD1(V31A): Aggregation was carried out with DPBS buffer containing indicated concentrations of EDTA that is used to chelate the structural metal of SOD1. Aggregation solution contained 42 μM SOD1(V31A) or SOD1(V31A)-Halo and […] of 3 was added to the solution at the beginning of reaction. Reaction was carried out quiescently at indicated temperatures. Fluorescence of 3 was measured at Ex=530 nm/Em=600 nm.

HEK293T cells = test: Stress-induced proteome aggregation in HEK293T cells with MG132 (AggGlow); type: cell-based, human; conditions: 5 μM MG132, 2.5 μM 3
Excerpt: as §1, §2

α-synuclein = target: T2, α-synuclein (Homo sapiens, UniProt P37840); test: α-synuclein aggregation assay, fluorogenic detection; type: biochemical; conditions: for stoichiometry of fluorescence intensity with α-syn concentration: 70 vs 140 μM α-syn
T2 construct: made in house; host or cells: E. coli (pET29b vector)
Description: Aggregation of α-synuclein was carried out using method described in the Supporting Information. Subsequently, half of reaction mixture was loaded on a 96-well plate to measure fluorescence intensity of 3 (a) or ThT (b) for the reaction mixture (T). The other half was centrifuged at 21,000 g for 30 minutes at 4° C. The supernatant fraction (S) and pellet fraction (P, after resuspension with a volume that was equal to that of the S fraction) were loaded on a 96-well plate to measure fluorescence intensity. 10 μM 3 or ThT was also incubated in buffer as a control. Parameters for fluorescence measurement: 3 (Ex=530 nm/Em=600 nm) and ThT (Ex=440 nm/Em=480 nm). Error bars: standard error (n=3).
as §3

SOD1-A4V-Halo = SOD1-A4V-Halo (Homo sapiens, UniProt P00441, A5V); test: In vitro heat-induced aggregation of SOD1-A4V-Halo conjugates; type: biochemical
Excerpt: (B-C) Excitation and emission spectra of 4 (with misfolded oligomers of SOD1-A4V-Halo) and 5 (with insoluble aggregates of SOD1-A4V-Halo).
The inventors installed Halo-tag reactive warhead to 2, resulting in 5.

T1 sequence (P00441 whole entry V32A): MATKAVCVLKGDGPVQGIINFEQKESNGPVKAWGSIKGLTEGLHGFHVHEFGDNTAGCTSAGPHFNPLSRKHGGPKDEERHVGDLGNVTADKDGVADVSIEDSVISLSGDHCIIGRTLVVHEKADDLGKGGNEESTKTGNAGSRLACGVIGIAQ
Sequence of SOD1-A4V-Halo (P00441 with tags, fused parts or gaps A5V): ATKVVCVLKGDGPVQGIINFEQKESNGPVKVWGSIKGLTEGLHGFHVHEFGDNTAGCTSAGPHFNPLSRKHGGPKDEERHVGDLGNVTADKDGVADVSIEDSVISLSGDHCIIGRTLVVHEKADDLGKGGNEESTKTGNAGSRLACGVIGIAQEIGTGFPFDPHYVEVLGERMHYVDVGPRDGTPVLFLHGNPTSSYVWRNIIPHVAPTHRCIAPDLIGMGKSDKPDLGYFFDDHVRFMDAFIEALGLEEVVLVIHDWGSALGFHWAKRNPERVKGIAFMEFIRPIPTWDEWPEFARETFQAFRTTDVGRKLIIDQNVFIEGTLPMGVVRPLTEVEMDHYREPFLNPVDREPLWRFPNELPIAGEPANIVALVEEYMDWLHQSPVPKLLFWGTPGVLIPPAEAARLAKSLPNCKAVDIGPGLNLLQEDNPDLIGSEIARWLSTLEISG

B (brightness) [1] | Φ (quantum yield) [1] | λem [1] [nm] | λex [1] [nm] | λabs [1] [nm] | ϵ (extinction coefficient) [1] | stoichiometry of fluorescence intensity with α-syn concentration (α-synuclein) | decrease in brightness relative to 3 [1] [fold] | diminished quantum yield relative to 3 [1] | fluorescence in solvents with increasing concentrations of glycerol [1] | Structure (SMILES) | detection of soluble oligomers of α-syn (α-synuclein) | other results
2,089 M^−1cm^−1 | 0.232 | 630 | 530 | 533 | 9,004 M^−1cm^−1 | – | ~5 | does not affect quantum yield | – | CN(C)c1ccc(/C=C2N=C(/C=C/c3ccccc3)N(CC(=O)OC(C)(C)C)C\2=O)cc1 [Compound 3b, tert-butyl 2-((Z)-4-(4-(dimethylamino)benzylidene)-5-oxo-2-((E)-styryl)-4,5-dihydro-1H-imidazol-1-yl)acetate] | – | –
1,386 M^−1cm^−1 | 0.1 | 621 | 485 | 500 | 13,863 M^−1cm^−1 | – | ~5 | ~50% | – | CN(C)c1ccc(/C=C/C2=NC(=C\c3ccccc3)/C(=O)N2CC(=O)OC(C)(C)C)cc1 [Compound 3a, tert-butyl 2-((Z)-4-benzylidene-2-((E)-4-(dimethylamino)styryl)-5-oxo-4,5-dihydro-1H-imidazol-1-yl)acetate] | – | –

Second part, the molecule before the results:

Structure (SMILES) | B (brightness) [1] | Φ (quantum yield) [1] | λem [1] [nm] | λex [1] [nm] | λabs [1] [nm] | ϵ (extinction coefficient) [1] | stoichiometry of fluorescence intensity with α-syn concentration (α-synuclein) | decrease in brightness relative to 3 [1] [fold] | diminished quantum yield relative to 3 [1] | fluorescence in solvents with increasing concentrations of glycerol [1] | detection of soluble oligomers of α-syn (α-synuclein) | other results
CN(C)c1ccc(/C=C2N=C(/C=C/c3ccc(N(C)C)cc3)N(CC(=O)OC(C)(C)C)C\2=O)cc1 [Compound 3, tert-butyl 2-((Z)-4-(4-(dimethylamino)benzylidene)-2-((E)-4-(dimethylamino)styryl)-5-oxo-4,5-dihydro-1H-imidazol-1-yl)acetate] | 8,786 M^−1cm^−1 | 0.22 and 0.221 | 629 | 530 | 530 | 39,049 M^−1cm^−1 | stoichiometric | – | – | – | detects soluble oligomers via fluorescence increase | fluorescence of crystals [2]: exhibited fluorescence; drop of absorbance at 530 nm on irradiation [3]: 10%; fluorescence in stressed cells (HeLa cells): obvious fluorescence pattern was developed in the cytosol; kinetics of fluorescence increase versus protein misfolding (tryptophan fluorescence) (SOD1(V31A)): identical to that of protein misfolding; kinetics of fluorescence increase versus turbidity (SOD1(V31A); 54.5° C.): faster than that of turbidity; fraction in which fluorescence signal is found (SOD1(V31A); after centrifugation): primarily found in the fraction of insoluble protein aggregates; quantum yield after aggregation of SOD1-V31A (SOD1(V31A); incubated at 59° C.): 0.22; quantum yield before aggregation of SOD1-V31A (SOD1(V31A); start value): 0.02; fluorescence in stressed cells (HEK293T cells): obvious fluorescence pattern was developed in the cytosol; fluorescence intensity with mature α-syn fibers (α-synuclein; 70 μM α-syn): 0.52; fluorescence intensity with mature α-syn fibers (α-synuclein; 140 μM α-syn): 1.0; time at which second phase of fluorescence increase was observed (α-synuclein; fiber growth): 20 h; time at which second phase leveled off (α-synuclein; fiber maturation): 36 h; time at which fluorescence reached a plateau (α-synuclein; first phase): 8 h; time at which fluorescence started to increase (α-synuclein; first phase, soluble oligomers): 4 h
CC1=N/C(=C\c2ccc(O)cc2)C(=O)N1CC(=O)OC(C)(C)C [Compound 1, (Z)-tert-butyl 2-(4-(4-(hydroxy)benzylidene)-2-methyl-5-oxo-4,5-dihydro-1H-imidazol-1-yl)acetate] | 20.6 M⁻¹ cm⁻¹ | 0.001 | 429 | 370 | 376 | 20,592 M^−1cm^−1 | – | – | – | elevated fluorescence | – | –
Cc1ccc2c(c1)sc(-c1ccc(N(C)C)cc1)[n+]2C.[Cl-] [Thioflavin T, thioflavin T, reference compound] | – | – | – | – | – | – | such stoichiometry was absent | – | – | – | fails to detect soluble oligomers | –
CC1=N/C(=C\c2ccc(N(C)C)cc2)C(=O)N1CC(=O)OC(C)(C)C [Compound 2, (Z)-tert-butyl 2-(4-(4-(dimethylamino)benzylidene)-2-methyl-5-oxo-4,5-dihydro-1H-imidazol-1-yl)acetate] | 640 M⁻¹ cm⁻¹ | 0.027 | 521 | 450 | 452 | 23,718 M^−1cm^−1 | – | – | – | elevated fluorescence | – | which POI conformations activate fluorescence (SOD1-A4V-Halo): only activates fluorescence when POI forms insoluble aggregates
